# Test results taken from patent US20240050442A1, “TRIMEPRAZINE DERIVATIVES AND COMPOSITIONS COMPRISING THE SAME FOR TREATING A NEUROPSYCHIATRIC DISORDER” (CENTRE NATIONAL DE LA RECHERCHE SCIENTIFIQUE, priority 2020, published 2024).
# Legend:
# Assay type in all cases: in vivo
# [1] = test system: Fmr1-KO mice; experiment: Homing behaviour test (social discrimination, cognition); conditions: 13 post-natal days; for latency time (homing test): 0.175 mg/kg BW intraperitoneal, FIG. 2A
# Description: The experiments were performed following the ARRIVE (Animals in Research: Reporting In Vivo Experiments) guidelines. Fmr1-knockout (KO) and WT mice on a C57BL/6J congenic background were obtained from Prof. R. Willemsen. All animals were generated and housed in groups of 4 in standard laboratory conditions (22° C., 55±10% humidity, 12-h light/12-h dark diurnal cycles) with food and water provided ad libitum. Experimental testing was performed between 12:00 and 16:30 each day during the 12-h light period. Only male mice and rats were used. Animal care was conducted in accordance with the European Community Directive 2010/63/EU. The experiments were approved by the local ethics committee (Comité d′Ethique en Expérimentation Animale, by the French Ministry of Research. Trimeprazine and opipramol were purchased from Prestwich Library. Both molecules were diluted in DMSO at the stock concentration of 100 mM. All compounds injected intraperitoneally were administered in a volume of 1.5 ml per kg body weight at the amount indicated in the legends of each figure. Homing Behaviour Test: At PND 13, the litter was separated from the dam and kept for 30 min in a temperature-controlled holding cage. Then, each mouse pup was placed into a Plexiglas box whose floor was covered for ⅓ with bedding from the pup's home cage and for ⅔ with clean bedding. The pup was located at the side of the box covered by clean bedding, and its behaviour was videorecorded for 4 min for subsequent analysis. The following parameters were scored using the Observer 3.0 software (Noldus Information Technology): latency (s) to reach the home-cage bedding area; total time (s) spent by the pup in the nest bedding area.
# [2] = test system: Fmr1-KO mice; experiment: Social interaction test; conditions: 28-30 post-natal days, 0.25 mg/kg BW intraperitoneal
# Description: The experiments were performed following the ARRIVE (Animals in Research: Reporting In Vivo Experiments) guidelines. Fmr1-knockout (KO) and WT mice on a C57BL/6J congenic background were obtained from Prof. R. Willemsen. All animals were generated and housed in groups of 4 in standard laboratory conditions (22° C., 55±10% humidity, 12-h light/12-h dark diurnal cycles) with food and water provided ad libitum. Experimental testing was performed between 12:00 and 16:30 each day during the 12-h light period. Only male mice and rats were used. Animal care was conducted in accordance with the European Community Directive 2010/63/EU. The experiments were approved by the local ethics committee (Comité d'Ethique en Expérimentation Animale, by the French Ministry of Research. Trimeprazine and opipramol were purchased from Prestwich Library. Both molecules were diluted in DMSO at the stock concentration of 100 mM. All compounds injected intraperitoneally were administered in a volume of 1.5 ml per kg body weight at the amount indicated in the legends of each figure. Social Interaction Test: The 28-30-day-old mice were individually habituated to the experimental apparatus (a Plexiglas cage measuring 30×30×30 cm) for 5 min the day before testing. On the test day, the animals were isolated for 2 h before testing, to enhance their social motivation and thus facilitate the expression of social interaction during testing. The test consisted of placing 2 animals (same treatment and weight) into the test cage for 10 min. The behaviour of the animals was recorded using a video camera with zoom lens, DVD recorder and LCD monitor. Behaviour was assessed per single animal and analyzed by a trained observer who was unaware of genotype and treatment conditions using the Observer XT software (Noldus, The Netherlands). The following parameters were scored: a. Social Activities: • 1. Social sniffing: sniffing any part of the body of the partner, including the anogenital area. • 2. Following: moving in the direction of or pursuing the partner, who moves away. • 3. Mutual circle: partners are mutually sniffing each other's anogenital region, while describing tight circles with their reciprocal following movements. • 4. Pushing past: the focal animal passes between the wall of the cage and the body of the partner by pushing its own body through the narrow space available. • 5. Crawling under/over: the focal animal crawls underneath or over the partner's body, crossing it transversely from one side to the other. • 6. Social grooming: chewing and licking the fur of the partner. • 7. Social rest: the focal animal is being groomed by the partner. • 8. […] The average frequency of total social activities, quantified as number of events during the 10 min testing session, was graphed.
# [3] = test system: Fmr1-KO mice; experiment: Novel object recognition test (working memory)
# Description: The experiments were performed following the ARRIVE (Animals in Research: Reporting In Vivo Experiments) guidelines. Fmr1-knockout (KO) and WT mice on a C57BL/6J congenic background were obtained from Prof. R. Willemsen. All animals were generated and housed in groups of 4 in standard laboratory conditions (22° C., 55±10% humidity, 12-h light/12-h dark diurnal cycles) with food and water provided ad libitum. Experimental testing was performed between 12:00 and 16:30 each day during the 12-h light period. Only male mice and rats were used. Animal care was conducted in accordance with the European Community Directive 2010/63/EU. The experiments were approved by the local ethics committee (Comité d′Ethique en Expérimentation Animale, by the French Ministry of Research. Trimeprazine and opipramol were purchased from Prestwich Library. Both molecules were diluted in DMSO at the stock concentration of 100 mM. All compounds injected intraperitoneally were administered in a volume of 1.5 ml per kg body weight at the amount indicated in the legends of each figure. On day 1 and 2, mice were habituated for 10 min to the maze in which the task was performed. On the third day, mice were put back in the maze for 10 min, two identical objects were presented and the time that the mice spent exploring each object was recorded. The mice were again placed in the maze 5 minutes later for 10 min, one of the familiar objects was replaced with a novel object and the total time spent exploring each of the two objects (novel and familiar) was computed. Object exploration was defined as the orientation of the nose to the object at a distance of less than 2 cm. A discrimination index was calculated as the difference between the times spent exploring either the novel or familiar object divided by the total time exploring the two objects. A higher discrimination index is considered to reflect greater memory retention for the familiar object. Pharmacological treatment with SM2 and SM4 was performed 30 minutes before training.
# [4] = Fmr1-KO adolescent mice, acute treatment
SMILES,latency time (homing test) ([1]; Fmr1-KO infant mice),latency time (homing test) ([1]; WT infant mice),"number of social interactions [2, 4]",number of social interactions ([2]; WT adolescent mice),"discrimination index ([3]; Fmr1-KO adult mice 8 weeks, 0.18 mg/kg BW intraperitoneal 30 minutes before training, FIG. 3B)","discrimination index ([3]; WT adult mice 8 weeks, 0.18 mg/kg BW intraperitoneal 30 minutes before training, FIG. 3B)","latency time (time the mouse pups need to find the mother's litter) ([1]; Fmr1-KO infant mice, 0.25 mg/kg BW intraperitoneal, FIG. 1A)","discrimination index ([3]; Fmr1-KO adult mice 8 weeks, 0.3 mg/kg BW intraperitoneal 30 minutes before training, FIG. 3A)","discrimination index ([3]; WT adult mice 8 weeks, 0.3 mg/kg BW intraperitoneal 30 minutes before training, FIG. 3A)"
"OCCN1CCN(CCCN2c3ccccc3C=Cc3ccccc32)CC1 [SM2, opipramol]",does not have a beneficial impact,has a negative impact,does not have a beneficial impact,has a negative impact,not normalized,worsened the behaviour,,,
"CC(CN(C)C)CN1c2ccccc2Sc2ccccc21 (centres unmarked) [SM4, Trimeprazine]",,,normalized,does not modify the social interaction behaviour,,,normalized,Discrimination index is the same in treated WT and Fmr-KO mice,has no impact on the behaviour
